Reference: patent US20070178516A1, “Self-addressable self-assembling microelectronic integrated systems, component devices, mechanisms, methods, and procedures for molecular biological analysis and diagnostics” (NANOGEN, INC., priority 1993, published 2007)
{Amino} = amino group added with ABI Aminolink 2 reagent, reacts with dyes such as Texas Red

Assays:
ET-10AL capture sequence = test: Electronically controlled fluorescent DNA/dye (ethidium bromide) detection; assay type: binding; details: capture ET-10AL; peak EB fluorescence after positive bias 0.05 mA, 0.03 Volt-Hours
Method: Microcapillary test devices were prepared and hybridized as described in Example 2 and 3. Ethidium bromide (EB) was added to the buffer solution (˜0.05 mM EB final concentration) and the test devices were biased negative to concentrate EB (positively charged) at both the hybridized and un-hybridized microlocations. The test devices were observed by epifluorescece microscopy at 550 nm excitation and 600 nm emission.
The test devices were re-mounted biased positive
constant current at 0.05 mA for 0.03 Volt-Hours, to selectively remove the EB. Fluorescence at the un-hybridized microlocations diminished while the hybridized microlocations retained a very high level of EB fluorescence. The results are given below:
Fluorescent signal was measured using an ICCD imaging
camera system and represent peak fluorescent intensities. The signal to noise ratio would be more than 1000 fold if the entire fluorescent signal area was integrated.

[1] = Conductivity measurements of transport buffers; assay type: physicochemical
[2] = cited from earlier work
[3] = not told

| Average/Std. Deviation (conductivity) [1] | Measurement 1 (conductivity) [1] | Measurement 2 (conductivity) [1] | Measurement 3 (conductivity) [1] | Molecule | also measured |
| --- | --- | --- | --- | --- | --- |
|  |  |  |  | 5′-Amino-CCT GCT CAT GAG TCT CTC (CCTGCTCATGAGTCTCTC; DNA, 5' {Amino}, backbone not given here; further chemistry not fully specified) [ET-11AL] | Normalized Signal (ET-10AL capture sequence): >200 |
|  |  |  |  | 5′-Amino-TGCGAGCTGCAGTCAGACAT (TGCGAGCTGCAGTCAGACAT; DNA, 5' {Amino}, backbone not given here; further chemistry not fully specified) [ET-21A] | Normalized Signal (ET-10AL capture sequence): 1 |
| 17.3 +/− 0.87 μS/cm | 16.9 μS/cm | 16.7 μS/cm | 18.3 μS/cm | [Cl-].[Cl-].[Mg+2] [0.1 mM MgCl2, MgCl2] |  |
| 186 +/− 18.8 μS/cm | 174 μS/cm | 208 μS/cm | 177 μS/cm | [Cl-].[Cl-].[Mg+2] [1 mM MgCl2, MgCl2] |  |
|  |  |  |  | Cn1cncc1C[C@H](N)C(=O)O [1(π)-methylhistidine] | pKa (first listed) [2]: 1.64,; pKa (second listed) [2]: 6.46,; pKa (third listed) [2]: 8.61^3 |
|  |  |  |  | Cn1cnc(C[C@H](N)C(=O)O)c1 [3(τ)-methylhistidine] | pKa (first listed) [2]: 1.70,; pKa (second listed) [2]: 5.87,; pKa (third listed) [2]: 9.16^3 |
| 1.01 +/− 0.045 mS/cm | 1.05 mS/cm | 960 μS/cm | 1.01 mS/cm | O=C([O-])CCC(=O)[O-].[Na+].[Na+] [5 mM NaSuccinate, NaSuccinate] |  |
| 572 +/− 10.5 μS/cm | 572 μS/cm | 562 μS/cm | 583 μS/cm | NC(CO)(CO)CO [10 mM TRIS, TRIS] |  |
| 9.7 +/− 0.71 μS/cm | 9.16 μS/cm | 9.44 μS/cm | 10.5 μS/cm | O=S(=O)(O)CCN1CCN(CCO)CC1 [25 mM HEPES, HEPES] |  |
| 22.7 +/− 5.09 μS/cm | 27.4 μS/cm | 17.3 μS/cm | 23.5 μS/cm | N[C@@H](CS)C(=O)O [250 mM Cysteine, Cysteine] |  |
|  |  |  |  | N[C@@H](CS)C(=O)O [Cysteine] | conductance ([1]; 250 mM cysteine solution, pH 4 to 6 range): ~23 μS/cm |
|  |  |  |  | N[C@@H](Cc1c[nH]cn1)C(=O)O [Histidine] | pH above the surface of the permeation layer [3]: > 5 |
|  |  |  |  | O=P(O)(O)O [NaPO4, Sodium Phosphate] | conductance ([1]; 20 mM sodium phosphate): ~2.9 mS/cm |
|  |  |  |  | c1c[nH]cn1 [imidazole] | pH above the surface of the permeation layer [3]: > 5 |
|  |  |  |  | NCCC(=O)O [β-Alanine] | pKa (second listed) [2]: 10.19 |
| 128.7 +/− 7.0 μS/cm | 122 μS/cm | 128 μS/cm | 136 μS/cm | NaPO4 [1 mM NaPO4] |  |
| 1.44 +/− 0.04 mS/cm | 1.40 mS/cm | 1.44 mS/cm | 1.48 mS/cm | NaPO4 [10 mM NaPO4] |  |
| 2.90 +/− 0.11 mS/cm | 2.90 mS/cm | 2.79 mS/cm | 3.00 mS/cm | NaPO4 [20 mM NaPO4] |  |

| Molecule | Average/Std. Deviation (conductivity) [1] | Measurement 1 (conductivity) [1] | Measurement 2 (conductivity) [1] | Measurement 3 (conductivity) [1] | also measured |
| --- | --- | --- | --- | --- | --- |
| [Cl-].[Na+] [0.1 mM NaCl, NaCl] | 9.43 +/− 0.93 μS/cm | 8.80 μS/cm | 8.98 μS/cm | 10.5 μS/cm |  |
| [Cl-].[Na+] [1 mM NaCl, NaCl] | 112.7 +/− 2.08 μS/cm | 112 μS/cm | 115 μS/cm | 111 μS/cm |  |
